Results reported in ChEMBL document CHEMBL5316297, “Mechanistic Insight of Synthesized 1,4-Dihydropyridines as an Antidiabetic Sword against Reactive Oxygen Species” (J Med Chem, 2023).
Calls of active or inactive are those of the source. The calls are words filed in the database; no cut-off is given here.

Key:
Dipeptidyl peptidase 4 = Dipeptidyl peptidase 4 (Homo sapiens, UniProt P27487); test: Inhibition of DPP-4 (unknown origin) incubated for 30 mins in presence of substrate by fluorescence based analysis
Mus musculus [1] = test: Antidiabetic activity against high fat diet-STZ-induced diabetic Swiss albino mouse model assessed as increase in appearance of insulin immunopositive areas in pancreatic sections at 0.2 mmol/kg/day, po administered for 14 days by […] based analysis; assay type: functional, organism-based; details: time 14.0 day
[2] = Cytotoxicity against human BJ cells assessed as cell growth inhibition at 10 uM relative to control; assay type: toxicity, cell-based; details: read-out: GI
[3] = Cytotoxicity against HEK293 cells assessed as cell growth inhibition at 10 uM relative to control; assay type: toxicity, cell-based; details: human, read-out: GI
INS1 [4] = test: Induction of apoptosis in rat INS1 cells assessed as necrotic cells at 1 uM incubated for 36 hrs by Annexin V-FITC/ propidium iodide staining based flow cytometry analysis (reference value: 1.15%); assay type: functional
[5] = Cytotoxicity against human HCN-1A cells assessed as cell growth inhibition at 10 uM relative to control; assay type: toxicity, cell-based; details: read-out: GI
Mus musculus [6] = test: Antioxidant activity against high fat diet-STZ-induced diabetic Swiss albino mouse model assessed as serum catalase level at 0.2 mmol/Kg/day, po administered for 14 days (reference value: 378.22+/- 14.45 U/ml); assay type: functional; details: time 14 day
[7] = Cytotoxicity against human WPE1-NA22 cells assessed as cell growth inhibition; assay type: toxicity, cell-based
Mus musculus [8] = test: Antidiabetic activity against high fat diet-STZ-induced diabetic Swiss albino mouse model assessed as insulin resistance by measuring serum IL6 level at 0.2 mmol/Kg/day, po administered for 14 days by ELISA method (reference value: 39.30+/-4.14 pg/ml); assay type: functional; details: time 14 day
Alpha amylase = target: T1, Alpha amylase (Homo sapiens, UniProt P0DUB6); test: Inhibition of alpha amylase (unknown origin) measured after 20 to 25 mins
T1 sequence (P0DUB6 whole entry): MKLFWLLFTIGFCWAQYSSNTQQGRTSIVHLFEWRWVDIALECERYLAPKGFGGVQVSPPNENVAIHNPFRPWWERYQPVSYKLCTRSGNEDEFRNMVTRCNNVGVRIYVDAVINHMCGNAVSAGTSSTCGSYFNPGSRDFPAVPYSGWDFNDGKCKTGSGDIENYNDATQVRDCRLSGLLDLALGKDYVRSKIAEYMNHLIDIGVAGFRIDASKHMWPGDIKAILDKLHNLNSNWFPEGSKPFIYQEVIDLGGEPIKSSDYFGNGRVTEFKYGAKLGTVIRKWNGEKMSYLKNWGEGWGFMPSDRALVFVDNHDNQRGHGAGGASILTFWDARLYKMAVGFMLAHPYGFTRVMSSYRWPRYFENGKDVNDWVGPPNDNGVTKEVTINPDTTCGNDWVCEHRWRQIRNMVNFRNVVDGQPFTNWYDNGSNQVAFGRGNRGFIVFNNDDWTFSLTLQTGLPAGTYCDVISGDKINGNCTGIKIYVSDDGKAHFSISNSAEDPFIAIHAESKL

[9] = Toxicity in high fat diet-STZ-induced diabetic Swiss albino mouse model assessed as changes in body weight at 0.2 mmol/Kg/day, po administered for 14 days (reference value: 26.6 to 27.8 g); assay type: organism-based; details: in vivo, 336 h, time 14 day
Mus musculus [10] = test: Antidiabetic activity against high fat diet-STZ-induced diabetic Swiss albino mouse model assessed as induction of beta cell regeneration in pancreas at 0.2 mmol/kg/day, po administered for 14 days by haematoxylin and eosin staining based analysis; assay type: functional, organism-based; details: Pancreatic beta cell, time 14.0 day
[11] = target: voltage dependent L-type calcium channel (Rattus norvegicus, UniProt P22002+P27732+Q02485); test: Inhibition of voltage dependent L-type calcium channel in rat A7R5 cells
[12] = test system: voltage dependent L/T-type calcium channel; test: Inhibition of voltage dependent L/T-type calcium channel in human SH-SY5Y cells; details: SH-SY5Y cells
Mus musculus [13] = test: Antidiabetic activity against high fat diet-STZ-induced diabetic Swiss albino mouse model assessed as reduction in blood glucose level at 0.2 mmol/Kg/day, po administered for 14 days; assay type: functional; details: time 14 day
[14] = AUC in Swiss albino mouse plasma at 0.2 mmol/Kg, po measured after 24 hrs by HPLC analysis; assay type: ADME, organism-based; parameters: dose 0.2 mmol/Kg, time 24 hrs, route po; details: in vivo
INS1 [15] = test: Induction of rat INS1 cells regeneration incubated for 24 hrs by CCK8 assay; assay type: functional, cell-based
Mus musculus [16] = test: Antioxidant activity against high fat diet-STZ-induced diabetic Swiss albino mouse model assessed as serum MDA level at 0.2 mmol/Kg/day, po administered for 14 days (reference value: 8.70+/- 0.09 nmol/ml); assay type: functional; details: time 14 day
[17] = Cytotoxicity against human WPE1-NA22 cells assessed as cell growth inhibition at 10 uM relative to control; assay type: toxicity, cell-based; details: read-out: GI

Chain of Dipeptidyl peptidase 4 (P27487 whole entry): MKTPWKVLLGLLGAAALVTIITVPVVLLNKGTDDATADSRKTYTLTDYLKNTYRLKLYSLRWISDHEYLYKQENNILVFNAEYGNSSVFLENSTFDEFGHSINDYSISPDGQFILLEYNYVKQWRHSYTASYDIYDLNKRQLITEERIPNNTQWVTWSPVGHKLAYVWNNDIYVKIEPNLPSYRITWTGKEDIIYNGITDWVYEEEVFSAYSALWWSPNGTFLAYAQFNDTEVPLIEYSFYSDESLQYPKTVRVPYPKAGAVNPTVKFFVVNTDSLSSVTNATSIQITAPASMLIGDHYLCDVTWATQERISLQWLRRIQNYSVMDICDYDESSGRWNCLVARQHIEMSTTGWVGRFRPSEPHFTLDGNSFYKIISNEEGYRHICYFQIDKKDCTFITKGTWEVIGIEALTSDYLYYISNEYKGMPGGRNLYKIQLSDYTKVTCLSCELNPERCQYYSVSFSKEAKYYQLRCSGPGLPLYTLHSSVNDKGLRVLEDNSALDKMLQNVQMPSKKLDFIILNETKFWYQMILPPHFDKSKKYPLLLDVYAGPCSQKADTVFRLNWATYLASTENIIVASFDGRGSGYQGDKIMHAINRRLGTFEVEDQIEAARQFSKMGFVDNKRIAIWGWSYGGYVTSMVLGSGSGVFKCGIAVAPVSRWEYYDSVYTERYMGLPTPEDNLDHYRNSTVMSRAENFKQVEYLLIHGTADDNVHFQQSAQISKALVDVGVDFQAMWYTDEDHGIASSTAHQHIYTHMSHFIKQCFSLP

In the case of `CCOC(=O)C1=C(C)NC(C)=C(C(=O)OCC)C1c1cccc2c1OCO2`, the IC50 (Dipeptidyl peptidase 4) is reported as 280 µM, the Activity (Mus musculus [1]) is reported as “Active” and the inhibition at 10 µM [2] is reported as 34.5%. It also gave an inhibition at 10 µM [3] of 41.3%, an Activity (INS1 [4]) of 1.46% and an inhibition at 10 µM [5] of 33.1%. It also gave an Activity (Mus musculus [6]) of 271.11 U/ml, a GI50 [7] of 24.9 µM and an Activity (Mus musculus [8]) of 96.07 pg/mL. The IC50 (Alpha amylase) was 17.32 µM, the Activity [9] was 26.9 g and the Activity (Mus musculus [10]) was “Active”. It also gave an IC50 [11] of 12.6 µM, an IC50 [12] of 16.5 µM and an Activity (Mus musculus [13]) of 80.6 mg/dL. For the same molecule, the AUC [14] was 36.7 ng·h/mL, the Activity (INS1 [15]) was “Dose-Dependent Effect” and the Activity (Mus musculus [16]) was 8.61 nmol/mL. For the same molecule, the inhibition at 10 µM [17] was 26.4%.
